The assay concerns the target T1, IKKβ (Homo sapiens, UniProt O14920).
T1 sequence (O14920 1-756): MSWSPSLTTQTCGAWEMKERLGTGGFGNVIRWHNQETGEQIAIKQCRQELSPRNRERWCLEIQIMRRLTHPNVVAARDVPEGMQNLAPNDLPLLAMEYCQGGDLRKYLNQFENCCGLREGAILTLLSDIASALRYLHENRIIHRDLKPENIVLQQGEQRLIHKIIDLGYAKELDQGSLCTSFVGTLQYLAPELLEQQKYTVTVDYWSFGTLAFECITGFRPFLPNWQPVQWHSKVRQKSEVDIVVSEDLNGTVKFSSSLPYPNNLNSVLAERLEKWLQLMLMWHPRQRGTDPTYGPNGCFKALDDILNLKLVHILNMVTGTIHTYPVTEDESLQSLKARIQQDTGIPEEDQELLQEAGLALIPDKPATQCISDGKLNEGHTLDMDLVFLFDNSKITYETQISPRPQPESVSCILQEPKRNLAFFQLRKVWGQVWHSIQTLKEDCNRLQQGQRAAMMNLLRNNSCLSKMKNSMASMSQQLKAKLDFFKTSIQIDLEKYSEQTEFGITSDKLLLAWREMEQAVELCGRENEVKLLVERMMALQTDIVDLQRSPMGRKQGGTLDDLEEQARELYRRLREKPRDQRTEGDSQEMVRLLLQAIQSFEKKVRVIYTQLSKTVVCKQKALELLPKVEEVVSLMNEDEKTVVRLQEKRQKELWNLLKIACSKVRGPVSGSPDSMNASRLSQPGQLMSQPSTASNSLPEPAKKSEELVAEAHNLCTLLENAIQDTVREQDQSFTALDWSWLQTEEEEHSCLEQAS
It counts as biochemical. The note with it: read-out: % inhibition at 100 μM.

`CCCCCC(=O)/C=C/C=C\C/C=C\C/C=C\CCCC(=O)O` [15-oxoETE]: the inhibition (commonly the share of the control response that was lost under treatment) at 100 µM was above 50%.
